Test results as given in US20140161767A1, “FOLLICLE-STIMULATING HORMONE (FSH)/LYTIC DOMAIN FUSION CONSTRUCTS AND METHODS OF MAKING AND USING SAME” (BOARD OF SUPERVISORS OF LOUISIANA STATE UNIVERSITY AND …, priority 2012, published 2014).

How the values were obtained:
OVCAR-3 xenograft = test: OVCAR-3 ovarian cancer xenograft; type: in vivo
Protocol: The xenograft model of the OVCAR-3 human ovarian cancer cell line that present functional LHRH receptors was used in this study. OVCAR-3 represents a slow growing xenograft model and secretes the tumor marker (cancer antigen 125, or CA125). It's secretion can be used as treatment response and is a measure of drug activity.
In brief, Nu/Nu female mice, inbred strain, age 5 weeks (Harlan-Sprague Dawley) were injected subcutaneously with a NIH:OVCAR-3 cells/Matrigel suspension (4.6×10^6 cells/mouse). Treatment was started on day 33 after tumor cell injection when the tumors were established and continued on days 41 and 47. The doses for the 3 weekly injections were 0.02, 0.2 and 2 mg/kg body weight, given as a single bolus intravenous injection via lateral tail vein administered once a week for three weeks on days 33, 41 and 47. Necropsies were conducted on day 52. Data are presented as mean SEM. Arrows show dosing.
A group of 9 tumor bearing mice was sacrificed on day 33 and served as baseline group. All mice were necropsied 51-52 days after tumor cell injection. Tumor volumes and bodyweights were recorded twice weekly during the study, as well as overall veterinarian examination of mice was conducted.
Primary tumors, liver, kidney, pancreas, heart, lung, and spleen were collected, fixed in formalin and prepared for histological evaluation. Tumor weights were measured at necropsy, part of the tumors were frozen at −80° C. for LH/CG and LHRH receptor assay determination.
As a biomarker for drug activity, CA125 was determined in serum, collected from each individual mouse at necropsy using a Enzyme Linked Immunoassay for quantitative determination of ovarian cancer antigen CA125 (Assay kit Genway, Biotech, Inc. San Diego, Calif., Catalog #40-052-115009, # BC-1013 according to the manufacturer).
LHRH receptor levels were assessed from formalin fixed tumors. Quantitative immunoperoxidase image analysis was conducted with the Ventana Image Analysis System (VIAS) adjunctive computer assisted image analysis system functionally connected to an interactive microscope (Axio Imager). The quantitative analysis was conducted with the program for quantification of Her2/neu receptor that included morphometric and colorimetric analysis. Receptor status results were reported as percentage of cells showing positive staining of the LHRH receptors under the following criteria: 0 non-immunoreactive, 1+: 1-25% positive, 2+: 26 50% positive, 3+: 51-75% positive cells.

MDA-MB-435S = details: cited from earlier work
PC-3 xenograft = test: PC-3 prostate cancer xenograft, FSH-Phor18 fusion constructs; type: in vivo, mice; details: compared to vehicle
Protocol: This example describes in vivo studies in a mouse xenograft model of human prostate cancer (PC-3) with the three types and doses of (3-FSH-Phor18-fusion constructs (hFSH-β-33-53; hFSH-β-81-95 and hFSH-β-90-95).
Male Nu/Nu mice were injected subcutaneously with a PC-3/Matrigel suspension (1×10^6 cells). Mice were allocated into treatment groups of 8 mice per group on day 21 after tumor cell injection. Treatment started on day 1 and continued on day 5, 8, 12, 15 and 19. […] The doses for twice weekly injections were given as a single bolus injection.

Molecule	Tumor volume at necropsy (PC-3 xenograft)	other results
N.N.[Cl][Pt][Cl] [Cisplatinum, reference compound]	–	Tumor weights at necropsy (OVCAR-3 xenograft; Phor18-LHRH: 2 and 0.2 mg/kg vs saline and Phor18, p<0.05): not effective; Tumor volume (OVCAR-3 xenograft; during treatment): no reduction
COc1cccc2c1C(=O)c1c(O)c3c(c(O)c1C2=O)C[C@@](O)(C(=O)CO)C[C@@H]3O[C@H]1C[C@H](N)[C@H](O)[C@H](C)O1 [doxorubicin]	–	time to destroy human breast cancer cells in vitro (MDA-MB-435S): 4 h
CYTRDLVYKDPARPKIQKTCT [hFSH-β-33-53, unconjugated FSH beta chain fragment]	did not affect tumor volumes or tumor weights	–
DSTDCT (Follitropin subunit beta; UniProt P01225 108-113, looked up, fragment) [hFSH-β-90-95, unconjugated FSH beta chain fragment]	did not affect tumor volumes or tumor weights	–
QCHCGKCDSDSTDCT [hFSH-β-81-95, unconjugated FSH beta chain fragment]	did not affect tumor volumes or tumor weights	–
